This is an account of results in patent US7763616B2, “Piperazine-piperidines with CXCR3 antagonist activity” (Schering Corporation, priority 2005, dated 2010).

A value given as a limit tells only on which side of the number the result lay.

The target in one assay is T1, human CXCR3 (N-delta 4) (Homo sapiens, UniProt P49682).
T1 construct: CD8 leader (N); Flag tag; expressed in transfected cells; membrane preparation
T1 sequence (P49682 5-368 limits assumed): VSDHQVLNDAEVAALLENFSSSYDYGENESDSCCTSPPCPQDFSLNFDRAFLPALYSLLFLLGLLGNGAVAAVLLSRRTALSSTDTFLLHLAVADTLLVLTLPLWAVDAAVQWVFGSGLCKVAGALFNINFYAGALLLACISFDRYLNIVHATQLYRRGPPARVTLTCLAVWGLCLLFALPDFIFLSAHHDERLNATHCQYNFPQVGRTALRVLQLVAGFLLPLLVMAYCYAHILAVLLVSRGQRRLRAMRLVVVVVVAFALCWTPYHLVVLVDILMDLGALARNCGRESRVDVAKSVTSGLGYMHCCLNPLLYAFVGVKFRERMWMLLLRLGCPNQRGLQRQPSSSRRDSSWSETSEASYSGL
Put plainly: Human CXCR3 (N-delta 4) Scintillation Proximity Assay (SPA), [125I] IP-10 binding. The settings on record: Ba/F3-hCXCR3 (N-delta 4) membranes, 25 pM [125I] IP-10; read-out: IC50 value. The source says:
The inventive compounds can readily be evaluated to determine activity at the CXCR3 receptors by known methods, such as, for example, development of a human CXCR3 (N-delta 4) Binding Assay.
Cloning and Expression of Human CXCR3 (N-delta 4):
The DNA encoding human CXCR3 was cloned by PCR using human genomic DNA (Promega, Madison, Wis.) as a template. The PCR primers were designed based on the published sequence of human orphan receptor GPR9 (1) with incorporated restriction sites, a Kozak consensus sequence, CD8 leader and Flag tag. The PCR product was subcloned into the mammalian expression vector pME18Sneo, a derivative of the SR-alpha expression vector (designated as pME18Sneo-hCXCR3 (N-delta 4).
IL-3-dependent mouse pro-B cells Ba/F3 were transfected by electroporation in 0.4 ml Dulbecco's PBS containing 4×10^6 cells with 20 μg of pME18Sneo-hCXCR3 (N-delta 4) plasmid DNA. Cells were pulsed at 400 Volts, 100 OHMs, […]. The transfected cells were under selection with 1 mg/ml G418 (Life Technologies, Gaithersburg, Md.). G418-resistant Ba/F3 clones were screened for CXCR3 expression by specific binding of [^125I] IP10 (NEN Life Science Products, Boston, Mass.).
Preparation of Ba/F3-hCXCR3 (N-delta 4) Membranes:
Ba/F3 cells expressing human CXCR3 (N-delta 4) were pelleted and resuspended in the lysis buffer containing 10 mM HEPES, pH 7.5 and Complete® protease inhibitors (1 tablet per 100 ml) (Boehringer Mannheim, Indianapolis, Ind.) at a cell density of 20×10^6 cells per ml. After 5 minute incubation on ice, cells were transferred to 4639 cell disruption bomb (Parr Instrument, Moline, Ill.) and applied with 1,500 psi of nitrogen for 30 minutes on ice. Large cellular debris was removed by centrifugation at 1,000×g. Cell membrane in the supernatant was sedimented at 100,000×g. The membrane was resuspended in the lysis buffer supplemented with 10% sucrose and stored at −80° C. Total protein concentration of the membrane was determined by BCA method from Pierce (Rockford, Ill.).
Human CXCR3 (N-delta 4) Scintillation Proximity Assay (SPA):
For each assay point, 2 μg of membrane was preincubated for 1 hr with 300 μg wheat germ agglutinin (WGA) coated SPA beads (Amersham, Arlington Heights, Ill.) in the binding buffer (50 mM HEPES, 1 mM CaCl2, 5 mM MgCl2, 125 mM NaCl, 0.002% NaN3, 1.0% BSA) at room temperature. The beads were spun down, washed once, resuspended in the binding buffer and transferred to a 96-well Isoplate (Wallac, Gaithersburg, Md.). 25 pM of [^125I] IP-10 with tested compounds in a series of titration were added to start the reaction. After 3 hr reaction at room temperature, the amount of [^125I] IP10 bound to the SPA beads was determined with a Wallac 1450 Microbeta counter.
On the technique in general: In a scintillation proximity assay essentially only radioactivity close to the scintillant gives light.
A word on the IC50: it is the concentration needed to halve the response being measured. As to `CC[C@H]1CN(c2nc3c(nc2Cl)CNc2c(c(=O)c2=O)N3)CCN1C1CCN(Cc2ccc(Cl)cc2F)CC1` [Compound 1], the IC50 is 0.3 nM.

Still in this assay, the particulars now being: IC50 ratings; Ba/F3-hCXCR3 (N-delta 4) membranes, 25 pM [125I] IP-10; read-out: IC50.
On to `CC[C@H]1CN(c2nc3[nH]c(=O)n(C(=O)OC(C)(C)C)c3nc2Cl)CCN1C1CCN(Cc2ccc(Cl)cc2)CC1` [Compound 8], for which the IC50 is less than 25 nM.

`CC[C@H]1CN(c2nc3[nH]c(=O)[nH]c3nc2Cl)CCN1C1CCN(Cc2ccc(-n3cccn3)cc2)CC1` [Compound 17]: the IC50 is less than 25 nM. Consider `CC[C@H]1CN(c2nc3c(nc2Cl)CNC(=O)N3)CCN1C1CCN(C(=O)c2ccc(Cl)nc2N)CC1` [Compound 16], for which the IC50 is less than 25 nM. As to `CCNC(=O)n1cnc2cc(Cl)c(N3CCN(C4CCN(Cc5ccc(Cl)cc5F)CC4)[C@@H](CC)C3)cc21` [Compound 31], the IC50 was greater than 100 nM. For `CC[C@H]1CN(c2nc3[nH]c(=O)[nH]c3nc2Cl)CCN1C1CCN(Cc2ccc(Cl)cc2C#N)CC1` [Compound 13], the IC50 was less than 25 nM. In the case of `CC[C@H]1CN(c2nc3[nH]c(=O)[nH]c3nc2Cl)CCN1C1CCN([C@H](C(=O)OC)c2ccc(Cl)cc2)CC1` [Compound 30], the IC50 was greater than 100 nM. On the same count and under the same terms, in the case of `CCc1nc2nc(N3CCN(C4CCN(Cc5ccc(Cl)cc5F)CC4)[C@@H](CC)C3)c(Cl)nc2c(=O)n1CC` [Compound 15] it was less than 25 nM; in that of `CC[C@H]1CN(c2nc3[nH]c(=O)[nH]c3nc2Cl)CCN1C1CCN(Cc2ccc(Cl)cc2F)CC1` [Compound 6], less than 25 nM. Consider `CC[C@H]1CN(c2nc3[nH]c(=O)n(C)c(=O)c3nc2Cl)CCN1C1CCN(Cc2ccc(Cl)cc2)CC1` [Compound 7], for which the IC50 is less than 25 nM.

As to `CC[C@H]1CN(c2cc3[nH]c(C(F)(F)F)nc3cc2Cl)CCN1C1CCN(Cc2ccc(Cl)cc2F)CC1` [Compound 9], the IC50 was less than 25 nM. With `CC[C@H]1CN(c2cc3[nH]cnc3cc2Cl)CCN1C1CCN(Cc2ccc(Cl)cc2F)CC1` [Compound 25], the IC50 is greater than 100 nM.

As to `CC[C@H]1CN(c2cc3[nH]c(-c4ccccc4)nc3cc2Cl)CCN1C1CCN(Cc2ccc(Cl)cc2F)CC1` [Compound 32], the IC50 is greater than 100 nM. Consider `CC[C@H]1CN(c2nc3[nH]c(=O)[nH]c3nc2Cl)CCN1C1CCN(Cc2ccc(Cl)cc2)CC1` [Compound 2], for which the IC50 was less than 25 nM. In the case of `CC[C@H]1CN(c2nc3c(nc2Cl)CNc2c(c(=O)c2=O)N3)CCN1C1CCN(Cc2ccc(Cl)cc2F)CC1` [Compound 1], the IC50 was less than 25 nM. Turning to `CC[C@H]1CN(c2nc3[nH]c(=O)[nH]c3nc2Cl)CCN1C1CCN(C(C#N)c2ccc(Cl)cc2)CC1` (mixture of isomers) [Compound 33], the IC50 is greater than 100 nM. Consider `CC[C@H]1CN(c2cc3c(cc2Cl)nc(C(F)(F)F)n3C)CCN1C1CCN(Cc2ccc(Cl)cc2F)CC1` [Compound 37], for which the IC50 was greater than 100 nM. Take `CC[C@H]1CN(c2cc3[nH]cnc3cc2Cl)CCN1C1CCN(Cc2ccc(Cl)cc2F)CC1` [Compound 24]: the IC50 lay within 25 to 100 nM. `CC[C@H]1CN(c2nc3c(nc2Cl)C(=O)NCCN3)CCN1C1CCN(C(=O)c2ccc(Cl)nc2N)CC1` [Compound 18]: the IC50 lay within 25 to 100 nM.

As for `CC[C@H]1CN(c2nc3[nH]c(=O)n(Cc4ccc(Cl)cc4C#N)c3nc2Cl)CCN1C1CCN(Cc2ccc(Cl)cc2C#N)CC1` [Compound 26], the IC50 was greater than 100 nM. Same read-out and setting: the result for `CC[C@H]1CN(c2cc3[nH]c(=O)c(=O)[nH]c3cc2Cl)CCN1C1CCN(Cc2ccc(Cl)cc2F)CC1` [Compound 29] reads greater than 100 nM. Consider `CC[C@H]1CN(c2nc3[nH]c(=O)[nH]c3nc2Cl)CCN1C1CCN([C@H](CO)c2ccc(Cl)cc2)CC1` [Compound 11], for which the IC50 is less than 25 nM. Turning to `CC[C@H]1CN(c2nc3c(nc2Cl)CNC(=O)N3)CCN1C1CCN(Cc2ccc(Cl)cc2F)CC1` [Compound 4], the IC50 was less than 25 nM.

Turning to `CC[C@H]1CN(c2nc3c(nc2Cl)C(=O)NCCNC(=O)N3)CCN1C1CCN(C(=O)c2ccc(Cl)nc2N)CC1` [Compound 34], the IC50 was greater than 100 nM. The same measure, in the same setting: in the case of `CC[C@H]1CN(c2cc3[nH]c(=S)[nH]c3cc2Cl)CCN1C1CCN(Cc2ccc(Cl)cc2F)CC1` [Compound 28] it was greater than 100 nM; in that of `CC[C@H]1CN(c2cc3[nH]c(=O)[nH]c3cc2Cl)CCN1C1CCN(Cc2ccc(Cl)cc2F)CC1` [Compound 21], 25 to 100 nM. Same read-out and setting: in the case of `CC[C@H]1CN(c2nc3c(nc2Cl)[nH]c(=O)n3Cc2ccc(Cl)cc2C#N)CCN1C1CCN(Cc2ccc(Cl)cc2C#N)CC1` [Compound 22] it was 25 to 100 nM. Still for that read-out and setting: in the case of `CCc1nc2nc(N3CCN(C4CCN(Cc5ccc(Cl)cc5F)CC4)[C@@H](CC)C3)c(O)nc2c(=O)n1CC` [Compound 38] it was greater than 100 nM; in that of `CC[C@H]1CN(c2nc3ncn(CC)c(=O)c3nc2Cl)CCN1C1CCN(Cc2ccc(Cl)cc2)CC1` [Compound 20], 25 to 100 nM.

Consider `CC[C@H]1CN(c2nc3nc(C)n(CC)c(=O)c3nc2Cl)CCN1C1CCN(Cc2ccc(Cl)cc2F)CC1` [Compound 23], for which the IC50 was in the range of 25 to 100 nM. As for `CC[C@H]1CN(c2nc3[nH]c(=O)[nH]c3nc2Cl)CCN1C1CCN(C(=O)c2ccc(Cl)cc2)CC1` [Compound 19], the IC50 fell in the range of 25 to 100 nM.

For the molecule `CC[C@H]1CN(c2cc3c(cc2Cl)nc(NS(C)(=O)=O)n3S(C)(=O)=O)CCN1C1CCN(Cc2ccc(Cl)cc2F)CC1` [Compound 35], the IC50 is greater than 100 nM. For `CC[C@H]1CN(c2nc3c(nc2Cl)CN/C(=N\C#N)N3)CCN1C1CCN(Cc2ccc(Cl)cc2F)CC1` [Compound 5], the IC50 is less than 25 nM. `CC[C@H]1CN(c2nc3[nH]c(=O)[nH]c3nc2Cl)CCN1C1CCN([C@@H](CO)c2ccc(Cl)cc2)CC1` [Compound 3]: the IC50 is less than 25 nM. Turning to `CC[C@H]1CN(c2nc3[nH]c(=O)[nH]c3nc2Cl)CCN1C1CCN(C(=O)c2ccc(Cl)nc2N)CC1` [Compound 12], the IC50 is less than 25 nM.
